Source: patent publication US8815882B2, “Pyrazole aminopyrimidine derivatives as LRRK2 modulators” (Genentech, Inc., priority 2010, dated 2014)

Biological target: T1, LRRK2 (Homo sapiens, UniProt Q5S007, G2019S)
T1 construct: purchased Invitrogen PV4882 (lot 567054A)
Assay: In Vitro LRRK2 Assay (LabChip 3000, fluorescently-labeled peptide substrate, ATP)
Format: biochemical
Details: read-out: LRRK2 Ki (KI), Table 8
Method in brief: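 LRRK2, fluorescent peptide substrate (diluted to 4 μM before mixing), ATP and compound were incubated 2 h in the dark, then stopped. Phosphorylated and unphosphorylated peptide were separated by capillary electrophoresis and quantified by fluorescence. Ki was fitted with a tight-binding equation including enzyme concentration, S and Km; IC50 or percent inhibition were also reported.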

T1 sequence (Q5S007 whole entry G2019S): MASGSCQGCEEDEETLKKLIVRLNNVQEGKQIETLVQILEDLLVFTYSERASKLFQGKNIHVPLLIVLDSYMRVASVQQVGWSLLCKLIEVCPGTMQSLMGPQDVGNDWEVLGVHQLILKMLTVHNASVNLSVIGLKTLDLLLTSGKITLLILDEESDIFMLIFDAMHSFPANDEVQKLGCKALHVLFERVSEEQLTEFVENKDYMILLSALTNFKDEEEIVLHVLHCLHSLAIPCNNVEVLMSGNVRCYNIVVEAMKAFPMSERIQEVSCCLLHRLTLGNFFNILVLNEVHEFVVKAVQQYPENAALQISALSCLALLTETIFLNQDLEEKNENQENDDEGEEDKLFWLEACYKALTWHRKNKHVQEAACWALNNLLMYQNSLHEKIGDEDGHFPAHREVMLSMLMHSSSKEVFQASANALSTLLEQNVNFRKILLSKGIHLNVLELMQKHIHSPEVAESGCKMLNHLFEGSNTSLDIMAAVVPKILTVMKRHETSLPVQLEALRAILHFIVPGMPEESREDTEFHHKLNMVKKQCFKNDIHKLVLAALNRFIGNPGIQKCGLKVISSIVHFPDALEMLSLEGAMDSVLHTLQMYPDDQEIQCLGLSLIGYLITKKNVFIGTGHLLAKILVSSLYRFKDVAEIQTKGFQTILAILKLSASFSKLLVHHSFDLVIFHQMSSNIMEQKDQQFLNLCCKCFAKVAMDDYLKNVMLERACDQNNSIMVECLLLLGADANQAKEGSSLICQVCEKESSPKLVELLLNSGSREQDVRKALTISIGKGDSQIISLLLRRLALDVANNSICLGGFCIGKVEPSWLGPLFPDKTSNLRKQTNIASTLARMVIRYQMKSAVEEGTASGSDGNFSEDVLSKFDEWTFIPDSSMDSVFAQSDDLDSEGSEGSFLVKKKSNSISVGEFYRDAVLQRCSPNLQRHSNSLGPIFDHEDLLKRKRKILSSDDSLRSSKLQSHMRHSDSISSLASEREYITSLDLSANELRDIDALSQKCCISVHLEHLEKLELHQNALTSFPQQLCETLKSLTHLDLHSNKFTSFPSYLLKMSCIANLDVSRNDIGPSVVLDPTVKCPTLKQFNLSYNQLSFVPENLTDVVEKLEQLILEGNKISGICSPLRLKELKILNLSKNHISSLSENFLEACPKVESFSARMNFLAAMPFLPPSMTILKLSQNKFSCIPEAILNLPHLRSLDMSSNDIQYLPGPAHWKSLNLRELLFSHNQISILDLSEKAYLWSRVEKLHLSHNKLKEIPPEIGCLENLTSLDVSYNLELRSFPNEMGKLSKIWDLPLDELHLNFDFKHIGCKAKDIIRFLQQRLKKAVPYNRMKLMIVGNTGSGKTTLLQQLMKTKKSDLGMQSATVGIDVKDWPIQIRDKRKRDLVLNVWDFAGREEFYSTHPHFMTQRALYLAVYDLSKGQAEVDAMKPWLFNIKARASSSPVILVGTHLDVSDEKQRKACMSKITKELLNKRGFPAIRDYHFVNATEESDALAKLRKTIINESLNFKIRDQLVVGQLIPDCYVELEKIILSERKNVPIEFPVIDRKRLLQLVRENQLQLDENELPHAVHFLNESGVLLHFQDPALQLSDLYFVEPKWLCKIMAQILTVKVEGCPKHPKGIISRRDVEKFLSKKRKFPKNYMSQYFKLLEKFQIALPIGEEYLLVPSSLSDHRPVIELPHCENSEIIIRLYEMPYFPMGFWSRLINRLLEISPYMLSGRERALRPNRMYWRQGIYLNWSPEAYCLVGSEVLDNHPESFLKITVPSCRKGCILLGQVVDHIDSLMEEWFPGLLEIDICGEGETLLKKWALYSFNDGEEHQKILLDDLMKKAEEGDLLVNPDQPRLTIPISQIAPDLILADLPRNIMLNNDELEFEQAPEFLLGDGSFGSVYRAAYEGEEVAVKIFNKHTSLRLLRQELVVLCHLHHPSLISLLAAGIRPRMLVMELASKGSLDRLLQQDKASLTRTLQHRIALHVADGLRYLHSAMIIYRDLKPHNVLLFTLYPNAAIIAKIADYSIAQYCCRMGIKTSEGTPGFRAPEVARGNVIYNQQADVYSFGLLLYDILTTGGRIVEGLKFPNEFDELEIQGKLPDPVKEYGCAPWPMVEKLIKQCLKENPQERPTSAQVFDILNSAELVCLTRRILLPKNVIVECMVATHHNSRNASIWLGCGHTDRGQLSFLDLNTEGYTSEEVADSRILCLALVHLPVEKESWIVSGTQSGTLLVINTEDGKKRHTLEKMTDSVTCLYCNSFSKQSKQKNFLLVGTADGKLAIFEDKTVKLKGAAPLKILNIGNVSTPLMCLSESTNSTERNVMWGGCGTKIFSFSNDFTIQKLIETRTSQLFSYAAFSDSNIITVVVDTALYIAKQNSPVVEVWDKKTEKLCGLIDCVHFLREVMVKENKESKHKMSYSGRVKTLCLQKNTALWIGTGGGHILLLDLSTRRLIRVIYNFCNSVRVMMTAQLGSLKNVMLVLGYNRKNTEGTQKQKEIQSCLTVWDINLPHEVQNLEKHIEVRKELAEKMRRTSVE

Row | Structure (SMILES) | Ki [nM]
1 | CNc1nc(Nc2cnn(C3CCS(=O)(=O)CC3)c2C)ncc1C(F)(F)F [Example 196, N4-methyl-N2-(5-methyl-1-(tetrahydro-2H-1,1-dioxo-thiopyran-4-yl)-1H-pyrazol-4-yl)-5-(trifluoromethyl) pyrimidine-2,4-diamine] | 47
2 | CNc1nc(Nc2cnn(CC(C)(C)O)c2C(F)(F)F)ncc1C(F)(F)F [Example 197, 2-methyl-1-(4-(4-(methylamino)-5-(trifluoromethyl)pyrimidin-2-ylamino)-5-(trifluoromethyl)-1H-pyrazol-1-yl)propan-2-ol] | 26
3 | CNc1nc(Nc2cn(CC(C)(C)O)nc2C(F)(F)F)ncc1C(F)(F)F [Example 198, 2-methyl-1-(4-(4-(methylamino)-5-(trifluoromethyl)pyrimidin-2-ylamino)-3-(trifluoromethyl)-1H-pyrazol-1-yl)propan-2-ol] | 27
4 | CNc1nc(Nc2cn([C@H](C)COC)nc2C)ncc1C(F)(F)F [Example 200, (R)-N2-(1-(1-methoxypropan-2-yl)-3-methyl-1H-pyrazol-4-yl)-N4-methyl-5-(trifluoromethyl) pyrimidine-2,4-diamine] | 12.8
5 | CCNc1nc(Nc2cn(CC(C)(C)O)nc2C(C)(C)C)ncc1C(F)(F)F [Example 201, 1-(3-tert-butyl-4-(4-(ethylamino)-5-(trifluoromethyl)pyrimidin-2-ylamino)-1H-pyrazol-1-yl)-2-methylpropan-2-ol] | 420
6 | CNc1nc(Nc2cn(C3CN(CC(F)(F)F)C3)nc2C)ncc1C(F)(F)F [Example 202, N4-methyl-N2-(3-methyl-1-(1-(2,2,2-trifluoroethyl)azetidin-3-yl)-1H-pyrazol-4-yl)-5-(trifluoromethyl) pyrimidine-2,4-diamine] | 34
7 | CNc1nc(Nc2cnn(C(C)(C)COC)c2C)ncc1C(F)(F)F [Example 203, N2-(1-(1-methoxy-2-methylpropan-2-yl)-5-methyl-1H-pyrazol-4-yl)-N4-methyl-5-(trifluoromethyl) pyrimidine-2,4-diamine] | 42
8 | CNc1nc(Nc2cn([C@@H]3CCN(C4COC4)C3)nc2C)ncc1C(F)(F)F [Example 204, (R)-N4-methyl-N2-(3-methyl-1-(1-(oxetan-3-yl)pyrrolidin-3-yl)-1H-pyrazol-4-yl)-5-(trifluoromethyl) pyrimidine-2,4-diamine] | 29
9 | CNc1nc(Nc2cnn([C@H](C)COC)c2C)ncc1C(F)(F)F [Example 205, (R)-N2-(1-(1-methoxypropan-2-yl)-5-methyl-1H-pyrazol-4-yl)-N4-methyl-5-(trifluoromethyl) pyrimidine-2,4-diamine] | 19
10 | CNc1nc(Nc2[nH]ncc2C)ncc1C(F)(F)F [Example 206, N4-methyl-N2-(4-methyl-1H-pyrazol-5-yl)-5-(trifluoromethyl) pyrimidine-2,4-diamine] | 232
11 | CCNc1nc(Nc2cn(C3CCN(C)CC3)nc2C)ncc1C(F)(F)F [Example 208, N4-ethyl-N2-(3-methyl-1-(1-methylpiperidin-4-yl)-1H-pyrazol-4-yl)-5-(trifluoromethyl) pyrimidine-2,4-diamine] | 10.2
12 | CNc1nc(Nc2cn(C3CCN(C)CC3)nc2C)ncc1C(F)(F)F [Example 209, N4-methyl-N2-(3-methyl-1-(1-methylpiperidin-4-yl)-1H-pyrazol-4-yl)-5-(trifluoromethyl) pyrimidine-2,4-diamine] | 41
13 | CNc1nc(Nc2cn(C3CN(C(C)C)C3)nc2C)ncc1C(F)(F)F [Example 214, N2-(1-(1-isopropylazetidin-3-yl)-3-methyl-1H-pyrazol-4-yl)-N4-methyl-5-(trifluoromethyl) pyrimidine-2,4-diamine] | 64
14 | CCC(C)S(=O)(=O)n1cc(Nc2ncc(C(F)(F)F)c(NC)n2)c(C)n1 (stereo not drawn) [Example 220, N2-(1-(sec-butylsulfonyl)-3-methyl-1H-pyrazol-4-yl)-N4-methyl-5-(trifluoromethyl) pyrimidine-2,4-diamine] | 11.7
15 | CNc1nc(Nc2cnn(C)c2C(C)C)ncc1C(F)(F)F [Example 223, N2-(5-isopropyl-1-methyl-1H-pyrazol-4-yl)-N4-methyl-5-(trifluoromethyl) pyrimidine-2,4-diamine] | 14
16 | CNc1nc(Nc2cn(C)nc2C(C)C)ncc1C(F)(F)F [Example 227, N2-(3-isopropyl-1-methyl-1H-pyrazol-4-yl)-N4-methyl-5-(trifluoromethyl) pyrimidine-2,4-diamine] | 69
17 | CNc1nc(Nc2cnn(C)c2C2CCC2)ncc1C(F)(F)F [Example 229, N2-(5-cyclobutyl-1-methyl-1H-pyrazol-4-yl)-N4-methyl-5-(trifluoromethyl) pyrimidine-2,4-diamine] | 11

The remaining compounds from weak to strong by Ki, led by results:

Row | Ki [nM] | Structure (SMILES)
18 | 10 | CNc1nc(Nc2cnn(S(C)(=O)=O)c2C)ncc1C(F)(F)F [Example 195, N4-methyl-N2-(5-methyl-1-(methylsulfonyl)-1H-pyrazol-4-yl)-5-(trifluoromethyl) pyrimidine-2,4-diamine]
19 | 9.9 | CNc1nc(Nc2cn(S(=O)(=O)C(C)C)nc2C)ncc1C(F)(F)F [Example 217, N2-(1-(isopropylsulfonyl)-3-methyl-1H-pyrazol-4-yl)-N4-methyl-5-(trifluoromethyl) pyrimidine-2,4-diamine]
20 | 9.6 | CNc1nc(Nc2cn(C3CCCOC3)nc2C)ncc1C(F)(F)F (stereo not drawn) [Example 230, N4-methyl-N2-(3-methyl-1-(tetrahydro-2H-pyran-3-yl)-1H-pyrazol-4-yl)-5-(trifluoromethyl) pyrimidine-2,4-diamine]
21 | 8.1 | CNc1nc(Nc2cnn(S(=O)(=O)C(C)C)c2C)ncc1C(F)(F)F [Example 218, N2-(1-(isopropylsulfonyl)-5-methyl-1H-pyrazol-4-yl)-N4-methyl-5-(trifluoromethyl) pyrimidine-2,4-diamine]
22 | 7.1 | CNc1nc(Nc2cnn(C3CCN(C)CC3)c2C)ncc1C(F)(F)F [Example 210, N4-methyl-N2-(5-methyl-1-(1-methylpiperidin-4-yl)-1H-pyrazol-4-yl)-5-(trifluoromethyl) pyrimidine-2,4-diamine]
23 | 6.7 | CCC(C)S(=O)(=O)n1ncc(Nc2ncc(C(F)(F)F)c(NC)n2)c1C (stereo not drawn) [Example 219, N2-(1-(sec-butylsulfonyl)-5-methyl-1H-pyrazol-4-yl)-N4-methyl-5-(trifluoromethyl) pyrimidine-2,4-diamine]
24 | 6.1 | CCNc1nc(Nc2cn(CC(C)(C)O)nc2C(C)C)ncc1C(F)(F)F [Example 221, 1-(4-(4-(ethylamino)-5-(trifluoromethyl)pyrimidin-2-ylamino)-3-isopropyl-1H-pyrazol-l-yl)-2-methylpropan-2-ol]
25 | 3.9 | CCNc1nc(Nc2cn(S(=O)(=O)C(C)C)nc2C)ncc1C(F)(F)F [Example 216, N4-ethyl-N2-(1-(isopropylsulfonyl)-3-methyl-1H-pyrazol-4-yl)-5-(trifluoromethyl) pyrimidine-2,4-diamine]
26 | 3.8 | CNc1nc(Nc2cnn(C(C)c3ccccn3)c2C)ncc1C(F)(F)F (stereo not drawn) [Example 225, N4-methyl-N2-(5-methyl-1-(1-(pyridin-2-yl)ethyl)-1H-pyrazol-4-yl)-5-(trifluoromethyl) pyrimidine-2,4-diamine]
27 | 3.4 | CNc1nc(Nc2cn(C)nc2C2CCC2)ncc1C(F)(F)F [Example 228, N2-(3-cyclobutyl-1-methyl-1H-pyrazol-4-yl)-N4-methyl-5-(trifluoromethyl) pyrimidine-2,4-diamine]
28 | 3.3 | CNc1nc(Nc2cnn([C@@H]3CCN(C4COC4)C3)c2C)ncc1C(F)(F)F [Example 211, (R)-N4-methyl-N2-(5-methyl-1-(1-(oxetan-3-yl)pyrrolidin-3-yl)-1H-pyrazol-4-yl)-5-(trifluoromethyl) pyrimidine-2,4-diamine]
29 | 3.2 | CNc1nc(Nc2cnn(C)c2C#N)ncc1C(F)(F)F [Example 215, 1-methyl-4-(4-(methylamino)-5-(trifluoromethyl)pyrimidin-2-ylamino)-1H-pyrazole-5-carbonitrile]
30 | 2.9 | CNc1nc(Nc2cnn(Cc3ccccn3)c2C)ncc1C(F)(F)F [Example 212, N4-methyl-N2-(5-methyl-1-(pyridin-2-ylmethyl)-1H-pyrazol-4-yl)-5-(trifluoromethyl) pyrimidine-2,4-diamine]
31 | 2.9 | CNc1nc(Nc2cn(Cc3ccccn3)nc2C)ncc1C(F)(F)F [Example 213, N4-methyl-N2-(3-methyl-1-(pyridin-2-ylmethyl)-1H-pyrazol-4-yl)-5-(trifluoromethyl) pyrimidine-2,4-diamine]
32 | 2.6 | CCNc1nc(Nc2cnn(C3CCN(C)CC3)c2C)ncc1C(F)(F)F [Example 207, N4-ethyl-N2-(5-methyl-1-(1-methylpiperidin-4-yl)-1H-pyrazol-4-yl)-5-(trifluoromethyl) pyrimidine-2,4-diamine]
33 | 2.4 | CNc1nc(Nc2cn(C(C)c3ccccn3)nc2C)ncc1C(F)(F)F (stereo not drawn) [Example 224, N4-methyl-N2-(3-methyl-1-(1-(pyridin-2-yl)ethyl)-1H-pyrazol-4-yl)-5-(trifluoromethyl) pyrimidine-2,4-diamine]
34 | 2.2 | CNc1nc(Nc2cn(C3CCN(C4COC4)CC3F)nc2C)ncc1C(F)(F)F (stereo not drawn) [Example 199, N2-(1-(3-fluoro-1-(oxetan-3-yl)piperidin-4-yl)-3-methyl-1H-pyrazol-4-yl)-N4-methyl-5-(trifluoromethyl) pyrimidine-2,4-diamine]
35 | 1.6 | CNc1nc(Nc2cn(C3CCN(C)CC3F)nc2C)ncc1C(F)(F)F (stereo not drawn) [Example 222, N2-(1-(3-fluoro-1-methylpiperidin-4-yl)-3-methyl-1H-pyrazol-4-yl)-N4-methyl-5-(trifluoromethyl) pyrimidine-2,4-diamine]
36 | 0.7 | CNc1nc(Nc2cnn(C3CCOCC3)c2Cl)ncc1C(F)(F)F [Example 226, N2-(5-chloro-1-(tetrahydro-2H-pyran-4-yl)-1H-pyrazol-4-yl)-N4-methyl-5-(trifluoromethyl) pyrimidine-2,4-diamine]
